Literature values, collected in patent publication US7098242B2, “Dihydroartemisinin and dihydroartemisitene dimers as anti-cancer and anti-infective agents” (The University of Mississippi, priority 2002, dated 2006).

Key:
[1] = tested on: chloroquine-sensitive and chloroquine-resistant strains of Plasmodium falciparum
[2] = tested on: malaria

Row | SMILES | anti-malarial activity [1] | activity relative to other artemisinin derivatives [2]
1 | C[C@@H]1CC[C@H]2[C@@H](C)C(=O)O[C@@H]3O[C@@]4(C)CC[C@@H]1[C@]32OO4 [artemisinin] | anti-malarial activity against both chloroquine-sensitive and chloroquine-resistant strains | 
2 | C[C@H]1[C@H](OC(=O)CCC(=O)[O-])O[C@@H]2O[C@@]3(C)CC[C@H]4[C@H](C)CC[C@@H]1[C@@]24OO3.[Na+] [sodium artesunate] |  | more activity
